Data taken from publication PMC5509998, “Autotaxin–lysophosphatidic acid–LPA 3 signaling at the embryo‐epithelial boundary controls decidualization pathways” (The EMBO Journal, 2017).

Molecular target: T1, autotaxin (ATX, ENPP2) (Mus musculus, UniProt Q9R1E6)
T1 construct: recombinant ATX; mouse ENPP proteins expressed in HEK293A cells (culture supernatants)
Test: colorimetric phosphodiesterase assay with p-nitrophenyl TMP as substrate
Type: biochemical

IC50: ~38 nM
Structure (SMILES): CCCCCn1c(-c2ccc(C(=O)NCCN3CCOCC3)cc2)cc(=O)n2cc(-c3ccc(Cl)cc3)nc12 [S15-00826]
